Patent US12144886B2, “Perineural administration of resiniferatoxin for treatment of maladaptive pain” (Sorrento Therapeutics, Inc., priority 2018, dated 2024)

Tested on: declawed cat with maladaptive pain
Assay: Feline Musculoskeletal Pain Index (FMPI) in a declawed cat after perineural RTX nerve blocks
Assay type: in vivo
Design: key to FMPI Q5 (jumping down) / FMPI Q6 (climbing upstairs) / FMPI Q7 (going down stairs) / FMPI Q8 (playing with/chasing toys) / FMPI Q9 (playing and interacting with other pets) / FMPI Q10 (getting up from a resting position) / FMPI Q11 (lying or sitting down) / FMPI Q12 (stretching) / FMPI Q13 (grooming) / FMPI Q14 (interacting with the owner) / FMPI Q15 (being touched or handled) / FMPI Q16 (eating) / FMPI Q17 (using the litter box) / FMPI Q1 (walking) / FMPI Q2 (running) / FMPI Q3 (jumping up) / FMPI Q4 (jumping up to kitchen counter height): 4 = normal; 3 = near normal; 2 = Moderately worse than normal; 1 = Barely, or with great effort; 0 = not at all
Conditions: one cat, 2.5 μg/forelimb perineural
Method: Each dose of 5 μg/cat or 2.5 μg/forelimb will be formulated in 1 cc insulin syringes by diluting 0.1 mL: (2.5 μg) of RTX in 0.9 mL sterile saline for injection immediately before use. For treatment, a total of 1.0 mL (2.5 μg) will be injected as nerve blocks, distributed equally (0.25 ml per injection site) over 4 injection sites for each forelimb.
Four point nerve blocks are performed by injection of 0.25 mL RTX each into the 1) superficial branches of the radial nerve, 2) dorsal branch of the ulnar nerve, 3) median nerve and superficial branch of the palmar branch of the ulnar nerve, and 4) deep branch of the palmar branch of the ulnar nerve. The nerve blocks for each forelimb are performed following a published technique for locoregional block of the manus in cats (Enomoto et al. (2016) J. Feline Med. Surg. 18:838-845). To block the superficial branches of the radial nerve (RSbr nn), the limb is positioned with the dorsal aspect facing upwards and the carpus in 180° of extension. A 25 G×⅝-inch needle is inserted subcutaneously (SC) from a point at the center of the limb at the level of the antebrachiocarpal joint. The needle is advanced approximately 10 mm SC at a 10-20° angle to the long axis of the limb with the bevel facing up. Once the tip of the needle is 3-5 mm from the confluence point of the accessory cephalic and cephalic veins, the injection is made (0.25 mL). To block the dorsal branch of the ulnar nerve (UDbr n), the limb is positioned with the lateral aspect facing upwards. A point is located lateral to and at the same level as the accessory carpal bone (ACb), positioned between the ACb and the styloid process of the ulna (SpU). A 25 G×⅝-inch needle is inserted SC distal to proximal, so the tip lies at the midpoint of the groove formed between ACb and the SpU, and then the injection is made (0.25 mL). To block the median nerve (M n) and superficial branch of the palmar branch of the ulnar nerve (UPbrS n), the limb is positioned with the palmar aspect facing upwards. A 25 G×⅝-inch needle is inserted SC at the distal border of the carpal pad and approximately 5 mm lateral to it, perpendicular to the long axis of the metacarpus, with the bevel facing up. The needle is inserted SC until the point is located two-thirds of the distance from the lateral aspect of the limb to the medial aspect. Two-thirds of the injectate volume is deposited at this point and the remaining volume is injected while the needle is withdrawn (0.25 mL). Gentle massage is applied to the injected volume under the skin for 5 seconds. To block the deep branch of the palmar branch of the ulnar nerve (UPbrDp n), the limb is positioned with the palmar aspect facing upwards. A 25 G×⅝-inch needle is inserted almost perpendicular to the ACb in a mediolateral direction such that the needle contacts the medial palmar aspect of the midpoint of the ACb with the bevel facing up. The needle is then redirected dorsally and advanced on the medial side of the ACb 2-3 mm until it penetrates the flexor retinaculum, and then the injection is made (0.25 mL).
The effectiveness of the injection with RTX is assessed at days 3, 7, and 14 using owner videography for qualitative assessment (jumping, manipulation of the limb), and cats will also be evaluated using the Feline Musculoskeletal Pain Index (FMPI) and the Client Specific Outcome Measure (CSOM).
For FMPI, cats are scored for 17 attributes designated Q1-Q17 using a scale of 0-4, where 0=not at all, 1=barely or with great effort, 2=moderately worse than normal, 3=near normal, and 4=normal. The total FMPI score is the sum of scores for each question. Higher totals indicate less impairment with a possible range of (0-68). For analysis, total score or percent possible can be used. […]

C=C(C)[C@]12C[C@@H](C)[C@@]34O[C@](Cc5ccccc5)(O[C@@H]1[C@@H]3C=C(COC(=O)Cc1ccc(O)c(OC)c1)C[C@]1(O)C(=O)C(C)=C[C@@H]41)O2 [RTX, resiniferatoxin]
47: FMPI Total score (possible range 0-68) (Day 0 (baseline)) | FMPI Total score (possible range 0-68) (Screening (baseline))
2: FMPI Q1 (walking) (Day 0 (baseline)) | FMPI Q5 (jumping down) (Day 0 (baseline)) | FMPI Q9 (playing and interacting with other pets) (Day 0 (baseline)) | FMPI Q15 (being touched or handled) (Day 0 (baseline)) | FMPI Q2 (running) (Day 3) | FMPI Q4 (jumping up to kitchen counter height) (Day 3) | FMPI Q15 (being touched or handled) (Day 3) | FMPI Q9 (playing and interacting with other pets) (Day 7) | FMPI Q1 (walking) (Screening (baseline)) | FMPI Q5 (jumping down) (Screening (baseline)) | FMPI Q9 (playing and interacting with other pets) (Screening (baseline)) | FMPI Q15 (being touched or handled) (Screening (baseline))
*1: FMPI Q9 (playing and interacting with other pets) (Day 3)
1: FMPI Q2 (running) (Day 0 (baseline)) | FMPI Q2 (running) (Screening (baseline))
57: FMPI Total score (possible range 0-68) (Day 14)
0.81: FMPI % poss (Day 7)
0.69: FMPI % poss (Day 0 (baseline)) | FMPI % poss (Screening (baseline))
*3: FMPI Q6 (climbing upstairs) (Day 3) | FMPI Q7 (going down stairs) (Day 3)
4: FMPI Q6 (climbing upstairs) (Day 0 (baseline)) | FMPI Q7 (going down stairs) (Day 0 (baseline)) | FMPI Q10 (getting up from a resting position) (Day 0 (baseline)) | FMPI Q11 (lying or sitting down) (Day 0 (baseline)) | FMPI Q16 (eating) (Day 0 (baseline)) | FMPI Q10 (getting up from a resting position) (Day 3) | FMPI Q11 (lying or sitting down) (Day 3) | FMPI Q16 (eating) (Day 3) | FMPI Q6 (climbing upstairs) (Day 7) | FMPI Q7 (going down stairs) (Day 7) | FMPI Q10 (getting up from a resting position) (Day 7) | FMPI Q11 (lying or sitting down) (Day 7) | FMPI Q16 (eating) (Day 7) | FMPI Q3 (jumping up) (Day 14) | FMPI Q6 (climbing upstairs) (Day 14) | FMPI Q7 (going down stairs) (Day 14) | FMPI Q10 (getting up from a resting position) (Day 14) | FMPI Q11 (lying or sitting down) (Day 14) | FMPI Q16 (eating) (Day 14) | FMPI Q6 (climbing upstairs) (Screening (baseline)) | FMPI Q7 (going down stairs) (Screening (baseline)) | FMPI Q10 (getting up from a resting position) (Screening (baseline)) | FMPI Q11 (lying or sitting down) (Screening (baseline)) | FMPI Q16 (eating) (Screening (baseline))
0.71: FMPI % poss (Day 3)
48: FMPI Total score (possible range 0-68) (Day 3)
*2: FMPI Q12 (stretching) (Day 3)
0.84: FMPI % poss (Day 14)
55: FMPI Total score (possible range 0-68) (Day 7)
0: FMPI Q4 (jumping up to kitchen counter height) (Day 0 (baseline)) | FMPI Q4 (jumping up to kitchen counter height) (Screening (baseline))
3: FMPI Q3 (jumping up) (Day 0 (baseline)) | FMPI Q8 (playing with/chasing toys) (Day 0 (baseline)) | FMPI Q12 (stretching) (Day 0 (baseline)) | FMPI Q13 (grooming) (Day 0 (baseline)) | FMPI Q14 (interacting with the owner) (Day 0 (baseline)) | FMPI Q17 (using the litter box) (Day 0 (baseline)) | FMPI Q1 (walking) (Day 3) | FMPI Q3 (jumping up) (Day 3) | FMPI Q5 (jumping down) (Day 3) | FMPI Q8 (playing with/chasing toys) (Day 3) | FMPI Q13 (grooming) (Day 3) | FMPI Q14 (interacting with the owner) (Day 3) | FMPI Q17 (using the litter box) (Day 3) | FMPI Q1 (walking) (Day 7) | FMPI Q2 (running) (Day 7) | FMPI Q3 (jumping up) (Day 7) | FMPI Q4 (jumping up to kitchen counter height) (Day 7) | FMPI Q5 (jumping down) (Day 7) | FMPI Q8 (playing with/chasing toys) (Day 7) | FMPI Q12 (stretching) (Day 7) | FMPI Q13 (grooming) (Day 7) | FMPI Q14 (interacting with the owner) (Day 7) | FMPI Q15 (being touched or handled) (Day 7) | FMPI Q17 (using the litter box) (Day 7) | FMPI Q1 (walking) (Day 14) | FMPI Q2 (running) (Day 14) | FMPI Q4 (jumping up to kitchen counter height) (Day 14) | FMPI Q5 (jumping down) (Day 14) | FMPI Q8 (playing with/chasing toys) (Day 14) | FMPI Q9 (playing and interacting with other pets) (Day 14) | FMPI Q12 (stretching) (Day 14) | FMPI Q13 (grooming) (Day 14) | FMPI Q14 (interacting with the owner) (Day 14) | FMPI Q15 (being touched or handled) (Day 14) | FMPI Q17 (using the litter box) (Day 14) | FMPI Q3 (jumping up) (Screening (baseline)) | FMPI Q8 (playing with/chasing toys) (Screening (baseline)) | FMPI Q12 (stretching) (Screening (baseline)) | FMPI Q13 (grooming) (Screening (baseline)) | FMPI Q14 (interacting with the owner) (Screening (baseline)) | FMPI Q17 (using the litter box) (Screening (baseline))
